The values below come from patent US12503475B2 (Centessa Pharmaceuticals (UK) Limited, priority 2020, dated 2025).

For the assay, the target named is T1, human orexin type 2 receptor (hOX2R) (Homo sapiens, UniProt O43614).
T1 construct: expressed in transfected cells
T1 sequence (O43614 1-444): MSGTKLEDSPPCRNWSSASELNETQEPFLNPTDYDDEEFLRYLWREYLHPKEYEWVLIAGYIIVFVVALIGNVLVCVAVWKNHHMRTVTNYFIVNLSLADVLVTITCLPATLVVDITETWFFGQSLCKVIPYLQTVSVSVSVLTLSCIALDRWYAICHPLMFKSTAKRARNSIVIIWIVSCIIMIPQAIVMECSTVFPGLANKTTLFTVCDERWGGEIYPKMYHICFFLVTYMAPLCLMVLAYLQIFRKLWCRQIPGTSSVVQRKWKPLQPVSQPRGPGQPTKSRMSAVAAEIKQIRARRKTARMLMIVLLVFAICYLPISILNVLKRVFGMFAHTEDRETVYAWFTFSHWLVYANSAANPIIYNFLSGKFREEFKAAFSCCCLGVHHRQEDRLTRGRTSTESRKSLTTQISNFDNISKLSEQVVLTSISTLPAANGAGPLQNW
Nature of the assay: Measurement of orexin type 2 receptor agonist activity (FLIPR calcium fluorescence). The settings on record: CHO cells expressing hOX2R, FLIPR calcium fluorescence; for EC50: read-out: hOx2 pEC50 (converted); for Emax: CHO, read-out: hOx2 Emax (%). Format: cell-based. The method, then:
The biological activity of the compounds of the present disclosure may be determined in cells stably expressing either orexin type 2 or orexin type 1 receptor. […] The agonist activity of a compound of the present disclosure may be determined by fluorescence value.
Stable cell line generation.
Measurement of orexin type 2 receptor agonist activity. […] As used herein, E. indicates the value at 10 μM concentration when orexin A is converted to a full agonist (maximum value of agonist activity. 100%).

For the compound `CS(=O)(=O)NC1C(Cc2cccc(-c3ccccc3)c2)N(C(=O)[C@H]2C[C@H](F)C2)CC12CC2` (mixture of isomers) [Compound 49, N-(6-([1,1′-biphenyl]-3-ylmethyl)-5-((1r,3r)-3-fluorocyclobutane-1-carbonyl)-5-azaspiro[2.4]heptan-7-yl)methanesulfonamide], the EC50 is 1 to 10 nM and the Emax fell in the range of 90 to 100%.

With `CS(=O)(=O)NC1C(Cc2cccc(-c3ccccc3)c2F)N(C(=O)C2(O)CCC2)CC12CC2` (racemic) [Compound 50, N-(6-((2-fluoro-[1,1′-biphenyl]-3-yl)methyl)-5-(1-hydroxycyclobutane-1-carbonyl)-5-azaspiro[2.4]heptan-7-yl)methanesulfonamide], the EC50 is 0.0794 to 1 nM and the Emax was in the range of 90 to 100%.

For the compound `CS(=O)(=O)NC1C(Cc2cccc(-c3cccc(F)c3)c2)N(C(=O)C2(O)CCC2)CC12CC2` (racemic) [Compound 51, N-(6-((3′-fluoro-[1,1′-biphenyl]-3-yl)methyl)-5-(1-hydroxycyclobutane-1-carbonyl)-5-zaspiro[2.4]heptan-7-yl)methanesulfonamide], the EC50 is 1 to 10 nM and the Emax lay in the range of 90 to 100%.

As to `CCNC(=O)N1CC2(CC2)C(NS(=O)(=O)CC)C1Cc1cccc(-c2ccccc2)c1F` (racemic) [Compound 52, N-ethyl-7-(ethylsulfonamido)-6-((2-fluoro-[1,1′-biphenyl]-3-yl)methyl)-5-azaspiro[2.4]heptane-5-carboxamide], the EC50 is 0.0794 to 1 nM and the Emax fell in the range of 90 to 100%.

For the compound `CC1CN(C(=O)N2CC3(CC3)C(NS(C)(=O)=O)C2Cc2cccc(-c3ccccc3)c2)C1` (racemic) [Compound 57, N-(6-([1,1′-biphenyl]-3-ylmethyl)-5-(3-methylazetidine-1-carbonyl)-5-azaspiro[2.4]heptan-7-yl)methanesulfonamide], the EC50 is 1 to 10 nM and the Emax was 90 to 100%.

Take `CS(=O)(=O)NC1C(Cc2cccc(-c3ccccc3)c2)N(C(=O)C23CC2C3)CC12CC2` (racemic) [Compound 66, N-(6-([1,1′-biphenyl]-3-ylmethyl)-5-(bicyclo[1.1.0]butane-1-carbonyl)-5-azaspiro[2.4]heptan-7-yl)methanesulfonamide]: the EC50 is 10 to 100 nM and the Emax fell in the range of 90 to 100%.

For `CS(=O)(=O)NC1C(Cc2cccc(-c3ccccc3)c2F)N(C(=O)[C@H]2C[C@H](F)C2)CC12CC2` (mixture of isomers) [Compound 90, N-(6-((2-fluoro-[1,1′-biphenyl]-3-yl)methyl)-5-((1r,3r)-3-fluorocyclobutane-1-carbonyl)-5-azaspiro[2.4]heptan-7-yl)methanesulfonamide], the EC50 is 1 to 10 nM and the Emax lay in the range of 90 to 100%.

For the compound `CS(=O)(=O)NC1C(Cc2cccc(-c3ccccc3)c2F)N(C(=O)[C@H]2C[C@@H](F)C2)CC12CC2` (mixture of isomers) [Compound 91, N-(6-((2-fluoro-[1,1′-biphenyl]-3-yl)methyl)-5-((1s,3s)-3-fluorocyclobutane-1-carbonyl)-5-azaspiro[2.4]heptan-7-yl)methanesulfonamide], the EC50 was 10 to 100 nM and the Emax lay in the range of 90 to 100%.

As for `CN(C)S(=O)(=O)NC1C(Cc2cccc(-c3ccccc3)c2F)N(C(=O)C2CCC2)CC12CC2` (racemic) [Compound 92, N-(5-(cyclobutanecarbonyl)-6-((2-fluoro-[1,1′-biphenyl]-3-yl)methyl)-5-azaspiro[2.4]heptan-7-yl)-N,N-dimethylsulfuric diamide], the EC50 is 1 to 10 nM and the Emax lay in the range of 90 to 100%.

On to `O=C(N1CC(F)C1)N1CC2(CC2)C(NS(=O)(=O)CF)C1Cc1cccc(-c2ccccc2)c1F` (racemic) [Compound 105, 1-fluoro-N-(6-((2-fluoro-[1,1′-biphenyl]-3-yl)methyl)-5-(3-fluoroazetidine-1-carbonyl)-5-azaspiro[2.4]heptan-7-yl)methanesulfonamide], for which the EC50 was 1 to 10 nM and the Emax lay within 90 to 100%.

On to `O=C(C1CCC1)N1CC2(CC2)C(NS(=O)(=O)CF)C1Cc1cccc(-c2ccccc2)c1F` (racemic) [Compound 106, N-(5-5(cyclobutanecarbonyl)-6-((2-fluoro-[1,1′-biphenyl]-3-yl)methyl)-5-azaspiro[2.4]heptan-7-yl)-1-fluoromethanesulfonamide], for which the EC50 was 0.0794 to 1 nM and the Emax was in the range of 90 to 100%.

For `O=C(N1CC2(CC2)C(NS(=O)(=O)CF)C1Cc1cccc(-c2ccccc2)c1F)C1(O)CCC1` (racemic) [Compound 108, 1-fluoro-N-(6-((2-fluoro-[1,1′-biphenyl]-3-yl)methyl)-5-(1-hydroxycyclobutane-1-carbonyl)-5-azaspiro[2.4]heptan-7-yl)methanesulfonamide], the EC50 was 0.0794 to 1 nM and the Emax is 90 to 100%.

Take `CCNC(=O)N1CC2(CC2)C(NS(=O)(=O)CF)C1Cc1cccc(-c2ccccc2)c1F` (racemic) [Compound 109, N-ethyl-6-((2-fluoro-[1,1′-biphenyl]-3-yl)methyl)-7-((fluoromethyl)sulfonamido)-5-azaspiro[2.4]heptane-5-carboxamide]: the EC50 is 0.0794 to 1 nM and the Emax was 90 to 100%.

As for `CS(=O)(=O)N[C@@H]1[C@H](Cc2cccc(-c3ccccc3)c2)N(C(=O)C2(C#N)CCC2)CC12CC2` (racemic) [Compound 295], the EC50 was 10 to 100 nM and the Emax was 90 to 100%.

`CN(C)C(=O)N1CC2(CC2)[C@H](NS(C)(=O)=O)[C@@H]1Cc1cccc(-c2cc(F)cc(F)c2)c1` (racemic) [Compound 296, 6-((3′,5′-difluoro-[1,1′-biphenyl]-3-yl)methyl)-N,N-dimethyl-7-(methylsulfonamido)-5-azaspiro[2.4]heptane-5-carboxamide]: the EC50 was 10 to 100 nM and the Emax was 90 to 100%.

With `CC(C)C(=O)N1CC2(CC2)[C@H](NS(C)(=O)=O)[C@@H]1Cc1cccc(-c2ccccc2F)c1` (racemic) [Compound 297], the EC50 is 1 to 10 nM and the Emax was in the range of 90 to 100%.

As for `CS(=O)(=O)N[C@@H]1[C@H](Cc2cccc(-c3ccccc3)c2)N(C(=O)C2(O)CCC2)CC12CC2` (racemic) [Compound 298], the EC50 was 1 to 10 nM and the Emax is 90 to 100%.

With `CC[C@@H](O)C(=O)N1CC2(CC2)[C@H](NS(C)(=O)=O)[C@@H]1Cc1cccc(-c2ccccc2)c1` (racemic) [Compound 300], the EC50 is 10 to 100 nM and the Emax is 90 to 100%.

Regarding `CS(=O)(=O)N[C@@H]1[C@H](Cc2cccc(-c3ccccc3)c2)N(C(=O)C2CCC2)CC12CC2` (racemic) [Compound 302, N-(-6-([1,1′-biphenyl]-3-ylmethyl)-5-(cyclobutanecarbonyl)-5-azaspiro[2.4]heptan-7-yl)methanesulfonamide], the EC50 was 1 to 10 nM and the Emax lay in the range of 90 to 100%.

For the compound `CCNC(=O)N1CC2(CC2)[C@H](NS(C)(=O)=O)[C@@H]1Cc1cccc(-c2ccccc2)c1` (racemic) [Compound 303, 6-([1,1′-biphenyl]-3-ylmethyl)-N-ethyl-7-(methylsulfonamido)-5-azaspiro[2.4]heptane-5-carboxamide], the EC50 is 1 to 10 nM and the Emax lay within 90 to 100%.

In the case of `CC(C)C(=O)N1CC2(CC2)[C@H](NS(=O)(=O)N(C)C)[C@@H]1Cc1cccc(-c2ccccc2)c1` (racemic) [Compound 304], the EC50 is 10 to 100 nM and the Emax lay in the range of 90 to 100%.

As for `COCCNC(=O)N1CC2(CC2)[C@H](NS(C)(=O)=O)[C@@H]1Cc1cccc(-c2ccccc2)c1F` (racemic) [Compound 306, 6-((2-fluoro-[1,1′-biphenyl]-3-yl)methyl)-N-(2-methoxyethyl)-7-(methylsulfonamido)-5-azaspiro[2.4]heptane-5-carboxamide], the EC50 was 10 to 100 nM and the Emax lay in the range of 90 to 100%.

Take `CS(=O)(=O)N[C@@H]1[C@H](Cc2cccc(-c3ccccc3)c2F)N(C(=O)NCCO)CC12CC2` (racemic) [Compound 307, 6-((2-fluoro-[1,1′-biphenyl]-3-yl)methyl)-N-(2-hydroxyethyl)-7-(methylsulfonamido)-5-azaspiro[2.4]heptane-5-carboxamide]: the EC50 is 1 to 10 nM and the Emax lay within 90 to 100%.

`CS(=O)(=O)N[C@@H]1[C@H](Cc2cccc(-c3ccccc3)c2)N(C(=O)[C@H]2C[C@@H](F)C2)CC12CC2` (racemic) [Compound 308, N-(-6-([1,1′-biphenyl]-3-ylmethyl)-5-((1s,3R)-3-fluorocyclobutane-1-carbonyl)-5-azaspiro[2.4]heptan-7-yl)methanesulfonamide]: the EC50 was 10 to 100 nM and the Emax fell in the range of 90 to 100%.

Consider `C[C@H]1C[C@@H]1S(=O)(=O)N[C@H]1[C@@H](Cc2cccc(-c3ccccc3)c2)N(C(=O)[C@H]2CCO2)CC12CC2` (relative stereo) [Compound 312, (1S*,2S*)-N-(6R,7R)-6-([1,1′-biphenyl]-3-ylmethyl)-5-((R)-oxetane-2-carbonyl)-5-azaspiro[2.4]heptan-7-yl)-2-methylcyclopropane-1-sulfonamide], for which the EC50 is 10 to 100 nM and the Emax fell in the range of 90 to 100%.
